Assay results taken from article PMC3820767, “Turning Defense into Offense: Defensin Mimetics as Novel Antibiotics Targeting Lipid II” (PLoS Pathogens, 2013).
pKd: −log10 of the molar value.

How the values were obtained:
[1] = NMR interaction with Lipid II; format: binding; settings: 1D proton chemical shift changes on addition to 3-Lipid II
Method: The NMR samples consisted of 0.15 mM Lipid II, 0.15 mM BAS00127538 compound, or 0.15 mM Lipid II+0.15 mM BAS00127538 compound. All samples were dissolved in 90% double distilled H20+10% DMSO, incubated for 30 minutes, freeze-dried, and then dissolved in 300 µL of d6-DMSO. NMR experiments were carried out at 25°C on an 800 MHz Bruker Avance NMR spectrometer (800.27 MHz for protons) equipped with a pulse-field gradient unit, four frequency channels, and a triple resonance TXI cryoprobe (Bruker Biospin, Billerica, MA). 1D proton experiments were collected to probe for chemical shift changes and 2D TOCSY (30, 60, and 90 msec spinlock times), 2D NOESY (150 and 300 msec mixing times), and natural abundance ^13C-HSQC experiments were collected to determine proton and carbon chemical shift assignments.

[2] = tested on: Escherichia coli ATCC 25922; assay: Antibacterial killing, 96-well turbidimetric (modified vCC) assay; format: cell-based; settings: for active against E.coli (IC100%): Table S3, concentration at which 100% killing occurred, no bacterial regrowth, No = not active; for Bacterial Killing E. coli: concentration resulting in 100% killing after 30 min exposure, modified vCC assay
In short: (§1)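 Turbidimetric killing: 30 min compound pre-exposure, 10 mM phosphate buffer/5% DMSO; 2× MH broth then added; growth read 12 h. S. pneumoniae: MIC by CLSI broth microdilution.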

[3] = tested on: Staphylococcus aureus ATCC 29213; assay: as above; format: cell-based; settings: concentration resulting in 100% killing after 30 min exposure, modified vCC assay
In short: as §1

[4] = tested on: S. aureus MMX100 (ATCC 29213); assay: Macromolecular synthesis assays (mechanism of action); format: cell-based, Staphylococcus aureus
Method: Macromolecular synthesis inhibition by BAS00127538 and 1499-1221 were investigated using S. aureus MMX100 (ATCC 29213). Cells were grown at 35°C overnight on Tryptic Soy Agar Broth (Remel, Lenexa, KS), and growth from the plate was used to inoculate 15 ml of Mueller Hinton Broth. The culture was grown to early exponential growth phase (OD600 = 0.2 to 0.3) while incubating in a shaker at 35°C and 150 rpm. For each macromolecular assay, the test agents 1499-1221 and BAS00127538 were added at either 0, 0.25, 0.5, 1, 2, or 4, -fold their respective MIC values for S. aureus ATCC 29213.
For DNA and protein synthesis, 100 µl of cell culture reaching early exponential phase was added to triplicate wells containing various concentrations of test compound or control antibiotics (2.5 µl) at 40× the final concentration in 100% DMSO (0.1% methanol in water for Rifampicin). A 2.5% DMSO treated culture served as the “no drug” control for all experiments. Cells were added in 1.25× strength MHB to account for the volume of drug added to each reaction, or in M9 minimal medium for protein synthesis reactions. Following a 5 min incubation at room temperature either [^3H]Thymidine (DNA synthesis) or [^3H]Leucine (protein synthesis) was added at 0.5–1.0 µCi per reaction, depending on the experiment. Reactions were allowed to proceed at room temperature for 15–40 min and then stopped by adding 12 µl of cold 5% trichloroacetic acid (TCA) or 5% TCA/2% casamino acids (protein synthesis). Reactions were incubated on ice for 30 min and the TCA precipitated material was collected on a 25 mm GF/1.2 µm PES 96 well filter plate (Corning). After washing five times with 200 µl per well of cold 5% TCA, the filters were allowed to dry, and then counted using a Packard Top Count microplate scintillation counter.
For cell wall synthesis, bacterial cells in early exponential growth phase were transferred to M9 minimal medium and added to 1.5 ml eppendorf tubes (100 µl/tube) containing various concentrations of test compound or control antibiotics (2.5 µl) at 40× the final concentration in 100% DMSO as described above. Following a 5 min incubation at 37°C, [^14C] N-acetyl-glucosamine (0.4 µCi/reaction) was added to each tube and incubated for 45 min in a 37°C heating block. […] After washing three times with 5 ml of 0.1% SDS, the filters were rinsed two times with 5 ml of deionized water, allowed to dry, and then counted using a Beckman LS3801 liquid scintillation counter.
For lipid synthesis, bacterial cells were grown to early exponential growth phase in MHB and 100 µl was added to 1.5 ml Eppendorf tubes (in triplicate) containing various concentrations of test compound or control antibiotics as described above. […] Samples were then counted via liquid scintillation counting. […]

[5] = Cytotoxicity by MTT assay; format: cell-based, human; settings: human, Caco-2 cells; concentration resulting in 50% cell survival, MTT, 24 h; read-out: Cytotoxicity (C50%) Caco-2
[6] = Surface Plasmon Resonance binding to immobilized 3-Lipid II; settings: SPR; for Binding on Lipid II?: Table S3, initial determination at 10 µM
In short: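 Binding was measured by Surface Plasmon Resonance on a BIAcore T100 instrument at 25°C. Peptides were injected over the sensor flow-cells at 30 µl/min in running buffer of 10 mM HEPES, 150 mM NaCl, 0.05% surfactant P20, pH 7.4 (±3 mM EDTA) with 10% DMSO. Control flow-cell signals were subtracted, surfaces were regenerated with 50 mM NaOH, and isotherms were fitted with BIAcore software.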

Structure (SMILES)	interaction with Lipid II by NMR [1]	active against E.coli (IC100%) [2]	Bacterial Killing E. coli [2] [µM]	Bacterial Killing S. aureus [3] [µM]	inhibition of DNA, lipid or protein synthesis ([4]; 1× MIC)	inhibition of cell wall synthesis ([4]; 1× MIC, [14C]N-acetyl-glucosamine incorporation)	DNA, protein and lipid synthesis ([4]; elevated concentrations (above 1× MIC))	IC50 at 24 h [5] [µM]	Binding on Lipid II? [6]	pKd ([6]; immobilized 3-Lipid II)	likely primary mechanism of action ([4]; mechanism of action studies, Figure S4)
CN1/C(=C/C=C/c2cc(-c3ccccc3)cc(-c3ccccc3)[o+]2)C(C)(C)c2ccccc21 [BAS00127538, 2,4-diphenyl-6-[(1E)-3-[(2E)-1,3,3-trimethyl-2,3-dihydro-1H-indol-2-ylidene]prop-1-en-1-yl]-1$l^4-pyran-1-ylium]	found to interact	7,8 µM	7.8	0.244	not DNA, lipid or protein synthesis	significantly inhibited cell wall synthesis	reduced	2.7	Yes	5.77	–
CN(C)c1ccc(/C=C/c2cc(-c3ccccc3)[o+]c(-c3ccccc3)c2)cc1 [Compound 1499-1221]	could not be confirmed	125 µM	125	0.031	–	–	–	8.9	No	–	membrane perturbation
